What all share (format): in vivo
In test [1] the test system is carrageenan-induced mouse pedal swelling. The experiment in a line: Carrageenan-induced mouse pedal swelling. As to conditions: 0.5 mg/mouse/d, 7 d. The text has this:
(§1) Female SPF-grade Kunming mice weighing 18 g±1 g were purchased from the Beijing HFK Bio-technology Co., Ltd., with a license number SCXK (Beijing) 2019-0008. The mice were acclimated to the environment for 3 d before the experiment, and then fed with the experimental drugs. The mice were randomly divided into a blank control group, a DXM group, and high-, medium-, and low-dose groups of the water extract of vetiver (the water extract of vetiver prepared in Example 2) or high-, medium-, and low-dose groups of the Radix Astragali water extract (the Radix Astragali water extract prepared in Comparative Example 1), with 8 mice in each group. The mice in each group were administered continuously for 7 d. At 1 h after the final administration, 1% carrageenan was subcutaneously injected into the sole of the right hind limb to induce inflammation (at 0.1 mL/mouse). At 0 h, 1 h, 2 h, 3 h, and 4 h of Inflammatory treatment, the thickness of the paws of the mice was measured with a micrometer, and the swelling degree and swelling inhibition rate of the paws were calculated.

Test [2] is described as follows: NO content in serum of mice (carrageenan model). The settings on record: 0.5 mg/mouse/d, 7 d; mice of Use Example 6.
Source text: as §1
The mice in each experimental group in Use Example 6 were used as research objects. Blood was collected from eyeballs, serum was separated, stored at −20° C., and level of NO in serum was determined. […]

Test [3] has as its system xylene-induced mouse auricle swelling. The experiment in a line: Xylene-induced mouse auricle swelling. The settings on record: 0.5 mg/mouse/d intragastric, 7 d. The text has this: Female SPF-grade Kunming mice weighing 18 g±1 g were purchased from Beijing HFK Bio-technology Co., Ltd., with a license number SCXK (Beijing) 2019-0008. The mice were acclimated to the environment for 3 d before the experiment, and then fed with the experimental drugs every day at 9 a.m. The mice were randomly divided into a blank control group, a dexamethasone (DXM) group, and high-, medium-, and low-dose groups of the water extract of vetiver (the water extract of vetiver prepared in Example 2) or high-, medium-, and low-dose groups of the Radix Astragali water extract (the Radix Astragali water extract prepared in Comparative Example 1), with 8 mice in each group. The mice in each group were intragastrically administered 1 time a day for 7 consecutive days. At 1 h after the final administration, 30 μL of xylene was added to the right ear of each mouse in each group, and while the left ear was kept as a control. After 30 min of the treatment, the mice were killed by neck breaking, and round ear pieces were collected by punching at a same sites of the left and right ears with a 6 mm diameter, and the ear swelling degrees and swelling inhibition rates were calculated. The results were shown in Table 6, swelling inhibition rate (%)=(average swelling degree of blank group−average swelling degree of administration group)/average swelling degree of blank group×100%.

Take `C[C@@H]1C[C@H]2[C@@H]3CCC4=CC(=O)C=C[C@]4(C)[C@@]3(F)[C@@H](O)C[C@]2(C)[C@@]1(O)C(=O)CO` [DXM, dexamethasone]: the “inhibition rate of pedal swelling” value in test [1] (0 h) was determined as 14.323%; in test [1] (1 h), 29.302%; in test [1] (2 h), 34.994%; in test [1] (3 h), 25.884%; in test [1] (4 h) it was 13.173%. Besides, the pedal swelling degree was found to be 0.995 ± 0.076 in test [1] (0 h after carrageenan); 1.090 ± 0.134 in test [1] (1 h after carrageenan); 1.083 ± 0.360 in test [1] (2 h after carrageenan); 1.328 ± 0.040 in test [1] (3 h after carrageenan); 1.438 ± 0.172 in test [1] (4 h after carrageenan). The “NO content in serum” value in test [2] was determined as 7.737 ± 0.431 µmol/mL. Also, in test [3] (30 min after xylene), the Swelling degree stood at 2.033 ± 0.907 mg. Moreover, in test [3] (vs blank group), the Swelling inhibition rate was found to be 60.646%.

The record behind these values is patent US20240261362A1, “Use Of Vetiver Product In Preparation Of Drug Having Anti-Inflammatory Effect And Capable Of Improving Animal Immunity” (Henan Agricultural University, priority 2023, published 2024).
